Experiments:
[1] = target: T1, signal transducer and activator of transcription 3 (STAT3) (Homo sapiens, UniProt P40763); experiment: microscale thermophoresis with labeled purified His-STAT3 […]-722 (reference inhibitor); type: binding
T1 construct: His-STAT3 127-722

[2] = target: T1, signal transducer and activator of transcription 3 (STAT3); experiment: microscale thermophoresis with labeled purified His-STAT3 […]-722; type: binding

T1 sequence (P40763 127-722): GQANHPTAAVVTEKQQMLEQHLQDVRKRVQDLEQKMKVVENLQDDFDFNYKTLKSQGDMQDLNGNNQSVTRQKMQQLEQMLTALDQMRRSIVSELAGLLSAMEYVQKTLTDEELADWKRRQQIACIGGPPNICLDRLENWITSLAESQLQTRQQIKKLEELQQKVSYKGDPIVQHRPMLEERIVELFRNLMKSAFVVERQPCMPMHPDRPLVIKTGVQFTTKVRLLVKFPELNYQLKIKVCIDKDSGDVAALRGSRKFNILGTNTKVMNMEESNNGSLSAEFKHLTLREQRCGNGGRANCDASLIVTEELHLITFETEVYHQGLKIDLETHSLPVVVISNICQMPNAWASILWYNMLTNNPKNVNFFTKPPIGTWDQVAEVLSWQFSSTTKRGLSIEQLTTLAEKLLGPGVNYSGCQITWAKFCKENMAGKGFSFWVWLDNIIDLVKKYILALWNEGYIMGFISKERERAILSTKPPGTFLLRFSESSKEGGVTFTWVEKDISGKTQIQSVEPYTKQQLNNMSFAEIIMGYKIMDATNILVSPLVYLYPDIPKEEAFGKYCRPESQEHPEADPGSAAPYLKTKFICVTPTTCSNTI

Kd [2] [µM]	Compound	Kd [1] [µM]
	O=[N+]([O-])c1ccc2c(c1)S(=O)(=O)C=C2 [Stattic]	6.51 ± 0.82
0.00134 ± 0.00019	WB737	
